Assays:
Serine protease 1 = Serine protease 1 (Homo sapiens, UniProt P07477); assay: Rate constant of deacylation for trypsin
Prothrombin = Prothrombin (Homo sapiens, UniProt P00734); assay: Rate constant of deacylation for thrombin
[1] = biological target: Urokinase-type plasminogen activator (Homo sapiens, UniProt P00749); assay: Rate constant of deacylation for Urokinase-type plasminogen activator

Chain of Serine protease 1 (P07477 whole entry): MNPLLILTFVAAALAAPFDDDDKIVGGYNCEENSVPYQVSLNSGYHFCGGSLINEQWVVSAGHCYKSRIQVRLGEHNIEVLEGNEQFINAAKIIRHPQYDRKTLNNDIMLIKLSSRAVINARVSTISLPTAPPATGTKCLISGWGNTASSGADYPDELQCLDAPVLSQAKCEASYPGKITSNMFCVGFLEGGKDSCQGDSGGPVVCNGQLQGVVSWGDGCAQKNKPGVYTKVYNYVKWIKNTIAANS

| SMILES | koff (Serine protease 1) [s⁻¹] | koff (Prothrombin) [s⁻¹] | koff [1] [s⁻¹] |
| --- | --- | --- | --- |
| C=C1CC(c2ccc(NC(=N)N)cc2)C/C(=C\I)O1 (stereo not drawn) | 0.000333 | – | – |
| C=C1CCC(c2ccc(CNC(=N)N)cc2)C(=O)O1 (stereo not drawn) | – | 0.0001 | 0.000733 |
| C=C1O/C(=C/I)C[C@H](c2ccc(NC(=N)N)cc2)[C@H]1NC(=O)c1ccccc1 | 8.3e-05 | – | 1.3e-05 |
| C=C1CC(c2ccc(NC(=N)N)cc2)CC(=C)O1 | 3.3e-05 | – | 0.00015 |
| N=C(N)NCc1ccc(C2CC/C(=C\I)OC2=O)cc1 (stereo not drawn) | – | 0.000217 | – |
